Measurements reported in US20180280480A1, “COMPOSITIONS AND PEPTIDES HAVING DUAL GLP-1R AND GLP-2R AGONIST ACTIVITY” (priority 2014, published 2018).

Test system: C57BL/6J mice
Assay: Acute food intake in C57BL/6J mice
Assay type: in vivo
Conditions: for Total food intake (g/animal): Day 0: 0-[…] (lights off), mean ± SEM
Experimental: The C57BL/6J mice arrived 7 days prior to the initiation of the study. During these days, animals were handled daily to accustom them to the experimental paradigm. At Day −1, the mice were randomised according to body weight to participate in one of following drug treatment groups (n=6-8 in each group): Group 1: vehicle. […] Group 3-5: SEQ ID NO 3; 3.0; 1.0; 0.3 mg/kg. Group 6-8: SEQ ID NO 4; 3.0; 1.0; 0.3 mg/kg. Group 9-11: SEQ ID NO 5; 3.0; 1.0; 0.3 mg/kg. Group 12-14: SEQ ID NO 6; 3.0; 1.0; 0.3 mg/kg. Group 15-17: SEQ ID NO 7; 3.0; 1.0; 0.3 mg/kg. Three days prior to initiation of dosing, all animals were handled daily and accustomed to the experimental conditions by subcutaneous mock injections (i.e. nipping the skin of the back). Baseline food intake was monitored four days prior to the study. Mice were randomized according to body weight on Day −1. Animals were subjected to two separate injections. First acute dose was administered prior to lights out at Day 0 and food intake was monitored 24 hours post dosing. On Day 3, mice were re-randomised into new treatment groups and dosed prior to lights out. Food intake was monitored 24 hours post dosing. Body weight was measured daily from Day −5 and throughout the study. The study was terminated on Day 5. […] Dosing took place prior to lights out in the afternoon (between 13.30 and 14.00). Doses were administered subcutaneously (dose volume 5 ml/kg). Food intake data was collected using the HM-2 system, an online computerized feeding system using digital weighing cells. Food intake and body weight were measured from Day −7 and throughout the study. […]

Substance: R^1-HGDGSFTSELSTYLDALAARDFIAWLIQTKITDR^2 [SEQ ID NO 6]
- Total food intake (g/animal) (single SC dose 0.3 mg/kg): 0.33 ± 0.17 g/animal
- Total food intake (g/animal) (single SC dose 1 mg/kg): 0.13 ± 0.08 g/animal
- Total food intake (g/animal) (single SC dose 3 mg/kg): 0.06 ± 0.03 g/animal
- ranking as inhibitor of food intake after […] (among SEQ ID NO 3-7, Table 4): most effective inhibitor of food intake
- food intake after […] compared to vehicle (single dose 0.3-3 mg/kg): significantly reduced food intake
